Entries after “also recorded” stand apart in the source; their conditions may differ.
Legend:
CD81-LEL = target: T1, CD81-LEL (Homo sapiens, UniProt P60033); test: Surface plasmon resonance binding of ligands to immobilized CD81-LEL; settings: for Binding (change in response units): 3 min association; for Dissociation 1 (change in response units) / Dissociation 2 (change in response units): dissociation interval
T1 construct: A recombinant form of the CD81-LEL protein with a GST tag; gift of Dr. Shoshana Levy, Stanford University
T1 sequence (P60033 113-201 limits assumed): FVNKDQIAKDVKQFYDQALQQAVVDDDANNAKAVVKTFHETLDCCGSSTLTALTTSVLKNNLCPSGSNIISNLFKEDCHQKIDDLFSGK
Description: SPR analysis was performed using a Biacore T200 workstation (GE Healthcare, NJ, USA). A recombinant form of the CD81-LEL protein with a GST tag (generously provided by Dr. Shoshana Levy, Stanford University) was used to confirm, using an established experimental technique, the binding of several ligands to the protein. Briefly, 10 μM CD81-LEL-GST diluted into 10 mM Na-Acetate buffer pH 4.5 was immobilized for 15 min at a flow speed of 5 μl/min onto a CM5 sensor chip using amine-coupling (EDC-NHS), Approximately 20,000 RU of protein were immobilized on the chip. The ligands were prepared as 600 μM solutions in PBS-0.05% Tween-80 (the running buffer) and they were introduced to the protein using a pre-programmed 3 minute association and 1 minute dissociation interval.
SPR analysis was performed using a Biacore T100 workstation (GE Healthcare, NJ, USA). […] Approximately 20,000 RU of protein were immobilized on the chip. The ligands were prepared as 200 uM solutions in PBS-1% DMSO (the running buffer) and they were introduced to the protein using a pre-programmed 3 min association and 1 min dissociation interval.

Plasmodium falciparum = test: Sporozoite invasion assay, P. falciparum in HepG2-CD81 cells; type: cell-based; settings: HepG2-CD81, Plasmodium falciparum, 400 uM compound
Description: (§1) Anopheles stephensi mosquitoes were fed on mice infected with Plasmodium yoelii 17XNL parasites. On day 14 post bloodmeal, salivary glands were harvested, homogenized, sporozoite number was determined using a hemocytometer and the indicated number of sporozoites was added to cell monolayers, Plasmodium falciparum sporozoites were generated by membrane feeding An. stephensi mosquitoes using gametocyte cultures generated in vitro.
(§2) HepG2-CD81 (14) cells were maintained in DMEM supplemented with 10% fetal calf serum and 1 mM glutamine (DMEM/FCS), mAb 2E6 was used for development assays and is directed against Plasmodium Hsp 70 (15) and mAb 2A10 is directed against the repeat region of P. falciparum CSP and was used for invasion assays.
(§3) 5×10^5 HepG2-CD81 cells were plated on collagen coated Lab-Tek wells and allowed to adhere overnight. The following day, cells were preincubated with 400 uM of compound for 30 minutes at 37° C. Controls were pre-incubated with DMSO at the same concentration in which it was found in the compound solutions. 10^5 sporozoites were added to each well and in the case of P. falciparum, incubated for 1.5 hours and scored for invasion whereas in the case of P. yoelii, incubated for 44 hours and scored for exoerythrocytic stages.

Plasmodium yoelii [1] = test: Sporozoite development assay, P. yoelii in HepG2-CD81 cells; type: cell-based
Description: as §1, §2, §3

Plasmodium yoelii [2] = test: Sporozoite infection assay, P. yoelii in Hepa1-6 cells; type: cell-based
Plasmodium berghei = test: Sporozoite infection assay, P. berghei in Hepa1-6 cells; type: cell-based
[3] = target: T2, native CD81 on Raji cells (Homo sapiens, UniProt P60033); test: Antibody neutralizing assay: inhibition of JS-81 anti-CD81 antibody binding on Raji cells (FACS); type: cell-based; settings: for inhibition at 50 µM / inhibition at 100 µM / inhibition at 400 µM / Inhibition of JS-81 Binding (%): Raji cells; for inhibition at 50 µM / inhibition at 100 µM / inhibition at 400 µM: read-out: Inhibition of JS-81 Binding (%)
T2 construct: endogenous in cells; host or cells: Raji cells (human B cell line)
T2 sequence (P60033 1-236): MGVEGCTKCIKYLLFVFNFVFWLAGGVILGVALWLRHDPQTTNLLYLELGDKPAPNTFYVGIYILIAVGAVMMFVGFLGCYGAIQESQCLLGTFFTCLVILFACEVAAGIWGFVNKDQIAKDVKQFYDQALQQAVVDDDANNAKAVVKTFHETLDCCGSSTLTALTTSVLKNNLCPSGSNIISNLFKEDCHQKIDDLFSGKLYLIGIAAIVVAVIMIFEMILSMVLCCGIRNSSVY
Description: For antibody neutralization assay Raji cells were used, a human B cell line that expressed high amounts of CD81 on the surface (data not shown), Cells were grown in RPMI medium (10% FCS, 1% penicillin/streptomycin, 1% L-glutamine, 1% non-essential amino acids, 1% sodium pyruvate, pH 7.4, at 37° C. with 5% CO2). 2×10^5 cells were incubated with or without different concentrations (50 μM, 100 μM, 400 μM and 1 mM) of indicated inhibitor for 20 min at room temperature, subsequently 1 ul (16 ng/μl) of FITC-labeled anti CD81 antibody (BD Pharmingen, 551108) was added to the cells and incubated for 20 min (antibody titration was performed to obtain a working dilution range, data not shown). Cells were washed and analyzed by FACS (BD FACSCalibur, software: Cell Quest Pro). Mean Fluorescence Intensity MFI was calculated using Flowjo software (TreesStar, www.flowjo.com).

SMILES	Binding (change in response units) (CD81-LEL; SPR) [response units]	Dissociation 1 (change in response units) (CD81-LEL; SPR) [response units]	Dissociation 2 (change in response units) (CD81-LEL; SPR) [response units]	Inhibition of JS-81 Binding (%) ([3]; 50 μM ligand)	Inhibition of JS-81 Binding (%) ([3]; 100 μM ligand)	Inhibition of JS-81 Binding (%) ([3]; 400 μM ligand)	also measured
O=C(O)Cn1ccc2ccccc21 [Ligand 75866, 2-indol-1-ylacetate]	14.3	18.9	11.3				Percent Infection (Plasmodium falciparum): 84.2%; Percent Infection (Plasmodium yoelii [1]; HepG2-CD81, Plasmodium yoelii, 400 uM compound): 42.6%; effect on infection (in words) (Plasmodium yoelii [1]; P. yoelii, HepG2-CD81): inhibit; also recorded: inhibitory effect; Percent Infection (Plasmodium yoelii [2]; Hepa1-6 Cells, Plasmodium yoelii): 122%; effect on infection (in words) (Plasmodium yoelii [2]; P. yoelii, Hepa1-6 cells): didn't inhibit; Percent Infection (Plasmodium berghei; Hepa1-6 Cells, Plasmodium berghei): 135%; effect on infection (in words) (Plasmodium berghei; P. berghei, Hepa1-6 cells): didn't inhibit
O=C(Cn1ccc(=O)[nH]c1=O)Nc1ccc(C(=O)O)c(O)c1 [Ligand 93033, 4-[[2-(2,4-dioxopyrimidin-1-yl)acetyl]amino]-2-hydroxybenzoate]	6.7	16.8	7.9				binding-dissociation behavior (in words) (CD81-LEL; SPR): comparable binding and dissociation; inhibition at 50 µM ([3]; 50 μM ligand): 0%; inhibition at 100 µM ([3]; 100 μM ligand): 0%; inhibition at 400 µM ([3]; 400 μM ligand): 16%
CC(C)=CCC1=C(OCC(=O)O)C(=O)c2ccccc2C1=O [Ligand 98026, 2-[3-(3-methylbut-2-enyl)-1,4-dioxonaphthalen-2-yl]oxyacetate]	36.6	35.9	28.1				inhibition at 50 µM ([3]; 50 μM ligand): 0%; inhibition at 100 µM ([3]; 100 μM ligand): 0%; inhibition at 400 µM ([3]; 400 μM ligand): 21%
O=C(O)c1cc(O)ccc1N=Nc1ccccc1 [Ligand 106863]				0	0	19	
NC(=O)NC(=O)c1nccnc1C(=O)O [Ligand 117922]				0	12	26	
CC(=NO)C1CC(CC(=O)O)C1(C)C (stereo not shown) [Ligand 127947]				0	0	24	
NS(=O)(=O)c1ccc(N=Nc2c(O)c(C(=O)O)cc3ccccc23)cc1 [Ligand 134137]				0	6	26	
O=C(O)/C=C/C(=O)Nc1cccc2cccnc12 [Ligand 144958]				0	54	12	
CSc1ccc2c(c1)C(N1CCN(C)CC1)Cc1ccccc1S2 (stereo not shown) [Ligand 281816]							binding to CD81 by SPR (in words) (CD81-LEL): bind to CD81-LEL; inhibition of anti-CD81 binding (in words) ([3]; 100 uM and 400 uM): inhibit anti-CD81 binding to CD81-LEL in a dose dependent manner
